Laboratory results: patent US9657324B1, “Method for treating or preventing mood disorders” (VIRUS IKAGAKU KENKYUSHO INC., priority 2008, dated 2017)
pIC50: −log10 of the molar value.

Legend:
[1] = test system: HHV-6 or Epstein-Barr virus (EBV); details: patients with encephalitis/encephalopathy-like and long-standing fatigue symptoms, presumably due to HHV-6 or EBV infection; cited from earlier work
CAML = experiment: Expression of CAML in HHV-6-infected U373 cells in the presence of ganciclovir (indirect fluorescent antibody technique); format: cell-based, human; details: U373 cell line infected with HHV-6, ganciclovir added after infection
Protocol: The human glial cell line (U373) is infected with HHV-6, and then ganciclovir is added. The amount of CAML expressed in the infected cell line in the presence of ganciclovir is measure by the indirect fluorescent antibody technique.

HHV-6 variant B = details: "is considered to be", read-out: effective concentration against HHV-6 variant B in terms of IC50; cited from earlier work
[2] = test system: HHV-6 variant B HST strain; experiment: Expression of SITH-1 in HHV-6-infected U373 cells in the presence of ganciclovir (real-time PCR); format: cell-based, human herpesvirus 6; details: U373 glial cell line infected with HHV-6, one day after infection, relative to ganciclovir (-)
Protocol: The human glial cell line (U373) was infected with HHV-6 in the presence of ganciclovir, and the amount of SITH-1 expressed in the infected cell line was measured by the real-time PCR technique.
The U373 cells were cultured overnight in the presence of ganciclovir at various concentrations (FIG. 14) and infected with an HHV-6 variant B HST strain, and the amount of SITH-1 that was expressed in cells one day after the infection was measured by the real-time PCR technique.
Since the effective concentration of ganciclovir against HHV-6 variant B is considered to be about 10 μM in terms of IC50, three concentrations were obtained by 3-fold dilutions, with 10 μM in the middle.
The vertical axis of the graph in FIG. 14 plots the relative amount of expression of SITH-1 mRNA, with the value for ganciclovir (-) being taken as unity. […] When ganciclovir was used in the amounts of […], 10 μM and 30 μM, the amount of expression of SITH-1 mRNA was suppressed by about 20%, 40% and more than 80%, respectively.

SMILES	patients who had their symptoms improved [1] [%]	amount of CAML expression (CAML)	pIC50 (HHV-6 variant B)	amount of expression of SITH-1 mRNA suppressed ([2]; ganciclovir 3 μM)	amount of expression of SITH-1 mRNA suppressed ([2]; ganciclovir 10 μM) [%]	amount of expression of SITH-1 mRNA suppressed ([2]; ganciclovir 30 μM)
CC(C)[C@H](N)C(=O)OCC(CO)OCn1cnc2c(=O)nc(N)[nH]c21 (stereo partly drawn) [valganciclovir]	75	–	–	–	–	–
Nc1nc(O)c2ncn(COC(CO)CO)c2n1 [ganciclovir]	–	suppressed by ganciclovir in a dose-dependent manner	~5.00	about 20%	~40	more than 80%
